What was measured:
ADAM17 = target: T1, ADAM17 (Homo sapiens, UniProt P78536); experiment: HPLC-based ADAM17 assay using glycosylated substrate; assay type: biochemical
T1 construct: purchased R&D Systems 930-ADB
Description: Both assays followed the same general protocol. 30 µL of 3x enzyme solution (30 nM) in assay buffer (10 mM Hepes, 0.001% Brij-35, pH 7.5) were added to solid bottom black 384 plates. Next, 30 µL of 3x test compounds and pharmacological controls were added to corresponding wells. After 30 min incubation at RT, the reactions were started by addition of 30 µL of 3x solution of glycosylated substrate (30 µM). Reactions were incubated at RT for 2 h and then quenched with 10 µL of 500 µM EDTA. Analytical RP-HPLC was performed on a 1260 Infinity Agilent Technologies liquid chromatograph equipped with an Agilent Poroshell 120 column. Eluents were 0.1% TFA in water (A) and 0.1% TFA in acetonitrile (B). The elution gradient was 0–98% B in 15 min with a flow rate of 1.0 mL/min. Detection was at λ = 214, 360, and 460 nm.

ADAM10 = target: T2, ADAM10 (Homo sapiens, UniProt O14672); experiment: ADAM10 non-glycosylated substrate assay; assay type: biochemical; details: non-glycosylated substrate
T2 construct: purchased R&D Systems 936-AD
T2 sequence (O14672 214-748): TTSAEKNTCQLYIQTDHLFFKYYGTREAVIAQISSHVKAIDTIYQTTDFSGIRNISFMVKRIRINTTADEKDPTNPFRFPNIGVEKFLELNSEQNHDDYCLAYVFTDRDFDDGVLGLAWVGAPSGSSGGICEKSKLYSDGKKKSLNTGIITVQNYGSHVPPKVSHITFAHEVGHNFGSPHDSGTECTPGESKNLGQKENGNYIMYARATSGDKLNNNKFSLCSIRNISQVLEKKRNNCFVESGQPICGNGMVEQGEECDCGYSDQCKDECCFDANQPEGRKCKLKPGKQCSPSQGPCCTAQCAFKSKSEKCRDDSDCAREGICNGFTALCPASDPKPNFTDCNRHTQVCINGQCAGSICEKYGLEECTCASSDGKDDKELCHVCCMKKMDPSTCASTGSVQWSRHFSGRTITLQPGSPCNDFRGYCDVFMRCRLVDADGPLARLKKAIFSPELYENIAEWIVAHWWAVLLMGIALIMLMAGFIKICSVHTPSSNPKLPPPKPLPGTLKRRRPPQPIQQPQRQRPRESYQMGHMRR
Source text: Additionally, we synthesized a non-glycosylated version, E(Edans)-[…]-K(Dabcyl), to be used as a control in the follow-up studies.

[1] = tested on: shedding of CXCL16 in A549 cells; experiment: CXCL16 shedding inhibition (ELISA); assay type: cell-based, human
Description: A549 cells were seeded in 12-well plates and grown to confluency in DMEM supplemented with 10% FBS and 1% P/S. Subsequently, cells were starved serum-free for 4 h, incubated for 1 h with GI 254023X or CID 3117694 (concentrations as indicated) or DMSO (vehicle, 0.1%) and afterwards stimulated with 10 ng/mL TNF and 10 ng/mL IFN for 24 h or left untreated in the presence of inhibitors or DMSO. Supernatants (500 µL) were harvested and centrifuged for 10 min at 16100 g and 4 °C. […] of CXCL16 were measured using the DuoSet human CXCL16 Elisa Kit (R&D systems, Wiesbaden, Germany). Samples were stored at −80 °C and diluted 2-fold after careful thawing. The standard ranged from 0 to 25,000 pg/mL with a detection limit of 391 pg/mL. For detection of soluble syndecan-4, conditioned media (200 µL) were 2-fold diluted in blotting buffer (0.15 M NaCl buffered to pH 4.5 with 50 mM sodium acetate, and with 0.1% Triton X-100), and applied to cationic polyvinylidene difluoride-based membranes (Hybond-N, Amersham Biosciences, Freiburg, Germany) under vacuum in a dot blot apparatus (Amersham Biosciences). The membranes were blocked for 1 h with PBS-T supplemented with 1% bovine serum albumin and 3% milk powder. Human syndecan-4 was detected by incubating membranes overnight at 4 °C with mouse anti-syndecan-4 mAb (0.6 µg/mL) followed by incubation with POD-coupled goat anti-mouse Ab (27 ng/mL in PBS, Jackson Immunoresearch). Chemiluminescence was recorded and quantified using the luminescent image analyzer LAS3000 substrate after addition of ECL advanced substrate (Amersham Biosciences).

A549 cells = experiment: Wound closure assay, A549; assay type: cell-based; details: A549, 10 µM
Description: For live-cell analysis of scratch-induced wound closure, 2.5 × 10^4 MDA-MB-231 and A549 cells per well were seeded in collagen G (40 µg/mL) (Biochrom AG, Germany) coated 96-well plates near confluence and allowed to grow overnight in standard medium (DMEM supplemented with 10% FBS and 1% P/S). At confluence, cells were pretreated 2 h with mitomycin (10 µg/mL) (Medac, Germany) to block cell proliferation and washed with standard media. Afterwards, cells were incubated in the presence of inhibitor at the indicated concentrations or DMSO (0.1% vehicle). Subsequently, a defined scratch (wound width between 642–767 µm) was performed in each well using the certified Essen Bioscience automated 96-wound maker^TM (Essen Biosciences, Hertfordshire, UK) for 96 well-plates. The medium was removed and 100 µL standard medium were added to the wells containing either inhibitor or DMSO. The closure of the wounded area was monitored using the IncuCyte ZOOM system by taking images of each well every 2 h over a period of 24 h. The reduction of wound width was determined over time using the IncuCyte ZOOM microscope software 2014A. Data were expressed as percentage of wound closure after 8 h.

T1 sequence (P78536 215-824): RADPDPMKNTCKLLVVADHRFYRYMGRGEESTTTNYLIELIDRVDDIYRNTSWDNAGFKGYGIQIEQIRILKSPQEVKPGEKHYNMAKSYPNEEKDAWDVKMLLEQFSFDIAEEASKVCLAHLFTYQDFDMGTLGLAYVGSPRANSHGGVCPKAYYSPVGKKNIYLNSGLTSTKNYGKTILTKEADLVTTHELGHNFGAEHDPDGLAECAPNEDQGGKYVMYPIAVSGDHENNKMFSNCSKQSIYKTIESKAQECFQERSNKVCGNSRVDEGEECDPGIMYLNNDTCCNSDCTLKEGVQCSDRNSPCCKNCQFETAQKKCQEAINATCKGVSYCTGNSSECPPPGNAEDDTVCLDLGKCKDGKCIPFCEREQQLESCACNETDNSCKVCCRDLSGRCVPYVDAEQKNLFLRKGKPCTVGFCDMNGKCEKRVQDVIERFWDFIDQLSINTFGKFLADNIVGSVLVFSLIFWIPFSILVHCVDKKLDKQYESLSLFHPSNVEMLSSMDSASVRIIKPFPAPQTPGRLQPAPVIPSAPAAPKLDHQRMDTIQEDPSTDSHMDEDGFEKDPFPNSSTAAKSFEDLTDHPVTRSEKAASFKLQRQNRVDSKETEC

COc1cccc(C(=O)NNC(=O)C(=O)Nc2ccc(C)c(Cl)c2)c1 [CID 3117694]
inhibition of ADAM17-mediated hydrolysis of glycosylated substrate (ADAM17): not appreciably inhibited
IC50 (ADAM10): > 100 µM
inhibition of cytokine-inducible shedding of CXCL16 ([1]; TNF/IFN stimulation 24 h): inhibited cytokine-inducible
inhibition of constitutive shedding of CXCL16 ([1]; unstimulated): not the constitutive shedding
effect on wound healing (A549 cells): significantly decreased wound healing

Reference: PMC5431342, “Discovery of an enzyme and substrate selective inhibitor of ADAM10 using an exosite-binding glycosylated substrate” (Scientific Reports, 2016)
